Measurements taken from patent US20080171657A1, “5,6-Dialkyl-7-Aminoazolopyrimidines, Their Preparation and Their Use for Controlling Harmful Fungi, and Compositions Comprising These Compounds” (Basf Aktiengesellschaft, priority 2005, published 2008).

Assays:
[1] = system: Puccinia recondita; experiment: Protective activity against Puccinia recondita on wheat (brown rust of wheat); assay type: in vivo; settings: comparison to closest prior art; concentration not given; untreated 90
Protocol: The active compounds were prepared as a stock solution comprising 25 mg of active compound which was made up to 10 ml using a mixture of acetone and/or DMSO and the emulsifier Uniperol® EL (wetting agent having emulsifying and dispersing action based on ethoxylated alkylphenols) in a volume ratio of solvent/emulsifier of 99/1. The mixture was then made up to 100 ml with water. This stock solution was diluted with the solvent/emulsifier/water mixture described to the concentration of active compound stated below. Protective Activity Against Puccinia recondita on Wheat (brown Rust of Wheat) Leaves of potted wheat seedlings of the cultivar “Kanzler” were sprayed to runoff point with an aqueous suspension having the concentration of active compounds stated below. The next day, the treated plants were inoculated with a spore suspension of brown rust of wheat (Puccinia recondite). The plants were then placed in a chamber with high atmospheric humidity (90 to 95%) at 20 to 22° C. for 24 hours. During this time, the spores germinated and the germ tubes penetrated into the leaf tissue. The next day, the test plants were returned to the greenhouse and cultivated at temperatures between 20 and 22° C. and 65 to 70% relative atmospheric humidity for a further 7 days. The extent of the rust fungus development on the leaves was then determined visually.

melting point [°C]	Structure (SMILES)	Infection in % [1] [%]
132 to 134	CCCCCCc1c(CCC)nc2cc(C)nn2c1N [I-1]	20
–	CCCCCc1c(CCC)nc2cc(C)nn2c1N [compound 24, reference compound]	40
